Results reported in PubChem BioAssay AID2060502 (Molecular Pharmacology Branch, DTP, NCI, 2025).
pIC50: −log10 of the molar value.

System: 885724-159-R-J1-PDC complex spheroid viability
Assay: Anticancer human tumor 885724-159-R-J1-PDC patient-derived pancreatic adenocarcinoma cell line growth inhibition [GQUAD]
Conditions: for pIC50: curve of first compound; for viability, T/C: stronger effect = lower value
Outline: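 Tumor cells were grown as complex spheroids with HUVEC endothelial cells and mesenchymal stem cells as stroma. G-quadruplex stabilizers were combined with targeted agents over half-log dilutions from near the clinical Cmax, or from 10 microM.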

[1] = second compound 0.0316 µM, first compound 0.0316 µM
[2] = second compound 0.0316 µM, first compound 0.316 µM
[3] = second compound 0.1 µM, first compound 0.0316 µM
[4] = second compound 0.1 µM, first compound 0.316 µM
[5] = second compound 0.316 µM, first compound 0.0316 µM
[6] = second compound 0.316 µM, first compound 0.316 µM
[7] = second compound 1 µM, first compound 0.0316 µM
[8] = second compound 1 µM, first compound 0.316 µM
[9] = second compound 3.16 µM, first compound 0.0316 µM
[10] = second compound 3.16 µM, first compound 0.316 µM
[11] = second compound 10 µM, first compound 0.0316 µM
[12] = second compound 10 µM, first compound 0.316 µM
[13] = second compound 0.0316 µM, first compound 0.1 µM
[14] = second compound 0.0316 µM, first compound 1 µM
[15] = second compound 0.0316 µM, first compound 3.16 µM
[16] = second compound 0.0316 µM, first compound 10 µM
[17] = second compound 0.1 µM, first compound 0.1 µM
[18] = second compound 0.1 µM, first compound 1 µM
[19] = second compound 0.1 µM, first compound 3.16 µM
[20] = second compound 0.1 µM, first compound 10 µM
[21] = second compound 0.316 µM, first compound 0.1 µM
[22] = second compound 0.316 µM, first compound 1 µM
[23] = second compound 0.316 µM, first compound 3.16 µM
[24] = second compound 0.316 µM, first compound 10 µM
[25] = second compound 1 µM, first compound 0.1 µM
[26] = second compound 1 µM, first compound 1 µM
[27] = second compound 1 µM, first compound 3.16 µM
[28] = second compound 1 µM, first compound 10 µM
[29] = second compound 3.16 µM, first compound 0.1 µM
[30] = second compound 3.16 µM, first compound 1 µM
[31] = second compound 3.16 µM, first compound 3.16 µM
[32] = second compound 3.16 µM, first compound 10 µM
[33] = second compound 10 µM, first compound 0.1 µM
[34] = second compound 10 µM, first compound 1 µM
[35] = second compound 10 µM, first compound 3.16 µM
[36] = second compound 10 µM, first compound 10 µM
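Further: spheroids exposed to agents for seven days before readout.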
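Wherever viability, T/C is given: percent of vehicle control viability where 100% = DMSO wells.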

SMILES: Cn1ncnc1[C@H]1c2n[nH]c(=O)c3cc(F)cc(c23)N[C@@H]1c1ccc(F)cc1 + Cc1cnc(CNC(=O)c2c(=O)c3ccc(N4CCCN(C)CC4)nc3n3c2sc2ccccc23)cn1
- pIC50 (second compound 0.0316 µM): < 6.50
- pIC50 (second compound 0.1 µM): < 6.50
- pIC50 (second compound 0.316 µM): < 6.50
- pIC50 (second compound 1 µM): < 6.50
- pIC50 (second compound 3.16 µM): < 6.50
- pIC50 (second compound 10 µM): < 6.50
- viability, T/C (second compound 0.0316 µM, first compound 0.000999 µM): 90.3%
- viability, T/C (second compound 0.0316 µM, first compound 0.00316 µM): 107%
- viability, T/C (second compound 0.0316 µM, first compound 0.00999 µM): 96.3%
- viability, T/C [1]: 108%
- viability, T/C (second compound 0.0316 µM, first compound 0.0999 µM): 90.3%
- viability, T/C [2]: 92.7%
- viability, T/C (second compound 0.1 µM, first compound 0.000999 µM): 117%
- viability, T/C (second compound 0.1 µM, first compound 0.00316 µM): 115%
- viability, T/C (second compound 0.1 µM, first compound 0.00999 µM): 97.1%
- viability, T/C [3]: 100%
- viability, T/C (second compound 0.1 µM, first compound 0.0999 µM): 98.8%
- viability, T/C [4]: 92.2%
- viability, T/C (second compound 0.316 µM, first compound 0.000999 µM): 90.1%
- viability, T/C (second compound 0.316 µM, first compound 0.00316 µM): 94.5%
- viability, T/C (second compound 0.316 µM, first compound 0.00999 µM): 104%
- viability, T/C [5]: 96.3%
- viability, T/C (second compound 0.316 µM, first compound 0.0999 µM): 96.6%
- viability, T/C [6]: 98.7%
- viability, T/C (second compound 1 µM, first compound 0.000999 µM): 86.8%
- viability, T/C (second compound 1 µM, first compound 0.00316 µM): 85.6%
- viability, T/C (second compound 1 µM, first compound 0.00999 µM): 82.3%
- viability, T/C [7]: 79.2%
- viability, T/C (second compound 1 µM, first compound 0.0999 µM): 87.4%
- viability, T/C [8]: 84.2%
- viability, T/C (second compound 3.16 µM, first compound 0.000999 µM): 79.8%
- viability, T/C (second compound 3.16 µM, first compound 0.00316 µM): 76.1%
- viability, T/C (second compound 3.16 µM, first compound 0.00999 µM): 78.9%
- viability, T/C [9]: 76.1%
- viability, T/C (second compound 3.16 µM, first compound 0.0999 µM): 81%
- viability, T/C [10]: 72.6%
- viability, T/C (second compound 10 µM, first compound 0.000999 µM): 82.4%
- viability, T/C (second compound 10 µM, first compound 0.00316 µM): 88.2%
- viability, T/C (second compound 10 µM, first compound 0.00999 µM): 83%
- viability, T/C [11]: 89.4%
- viability, T/C (second compound 10 µM, first compound 0.0999 µM): 105%
- viability, T/C [12]: 94.6%

SMILES: C=CC(=O)N1CCN(c2nc(=O)n(-c3c(C)ccnc3C(C)C)c3nc(-c4c(O)cccc4F)c(F)cc23)C(C)C1 (stereo not drawn) + CN(C)c1ccc(Nc2c3ccc(NC(=O)CCN4CCCC4)cc3nc3cc(NC(=O)CCN4CCCC4)ccc23)cc1
- pIC50 (second compound 0.0316 µM): < 5.00
- pIC50 (second compound 0.1 µM): < 5.00
- pIC50 (second compound 0.316 µM): < 5.00
- pIC50 (second compound 1 µM): < 5.00
- pIC50 (second compound 3.16 µM): < 5.00
- pIC50 (second compound 10 µM): < 5.00
- viability, T/C [1]: 98.5%
- viability, T/C [13]: 101%
- viability, T/C [2]: 96.2%
- viability, T/C [14]: 93.4%
- viability, T/C [15]: 103%
- viability, T/C [16]: 95.6%
- viability, T/C [3]: 101%
- viability, T/C [17]: 106%
- viability, T/C [4]: 96.5%
- viability, T/C [18]: 98.5%
- viability, T/C [19]: 107%
- viability, T/C [20]: 87.5%
- viability, T/C [5]: 90.5%
- viability, T/C [21]: 95.3%
- viability, T/C [6]: 82.6%
- viability, T/C [22]: 82.5%
- viability, T/C [23]: 103%
- viability, T/C [24]: 89.2%
- viability, T/C [7]: 86.2%
- viability, T/C [25]: 79.4%
- viability, T/C [8]: 70.6%
- viability, T/C [26]: 79.3%
- viability, T/C [27]: 85.3%
- viability, T/C [28]: 82.3%
- viability, T/C [9]: 67%
- viability, T/C [29]: 74.1%
- viability, T/C [10]: 84.4%
- viability, T/C [30]: 69.4%
- viability, T/C [31]: 83.8%
- viability, T/C [32]: 79.6%
- viability, T/C [11]: 64.8%
- viability, T/C [33]: 76%
- viability, T/C [12]: 85.2%
- viability, T/C [34]: 84.6%
- viability, T/C [35]: 87.6%
- viability, T/C [36]: 73.3%

SMILES: C#Cc1c(F)ccc2cc(O)cc(-c3ncc4c(N5CC6CCC(C5)N6)nc(OCC56CCCN5CC(F)C6)nc4c3F)c12 (stereo not drawn) + Cc1cnc(CNC(=O)c2c(=O)c3ccc(N4CCCN(C)CC4)nc3n3c2sc2ccccc23)cn1
- pIC50 (second compound 0.0316 µM): 5.22
- pIC50 (second compound 0.1 µM): 5.16
- pIC50 (second compound 0.316 µM): 5.21
- pIC50 (second compound 1 µM): 5.35
- pIC50 (second compound 3.16 µM): 5.63
- pIC50 (second compound 10 µM): 5.89
- viability, T/C [1]: 91.6%
- viability, T/C [13]: 120%
- viability, T/C [2]: 117%
- viability, T/C [14]: 103%
- viability, T/C [15]: 67%
- viability, T/C [16]: 36.6%
- viability, T/C [3]: 106%
- viability, T/C [17]: 110%
- viability, T/C [4]: 100%
- viability, T/C [18]: 107%
- viability, T/C [19]: 71.4%
- viability, T/C [20]: 39.7%
- viability, T/C [5]: 110%
- viability, T/C [21]: 100%
- viability, T/C [6]: 90.8%
- viability, T/C [22]: 94.5%
- viability, T/C [23]: 69.5%
- viability, T/C [24]: 35%
- viability, T/C [7]: 92.8%
- viability, T/C [25]: 81.3%
- viability, T/C [8]: 84.2%
- viability, T/C [26]: 75.3%
- viability, T/C [27]: 59.9%
- viability, T/C [28]: 28.4%
- viability, T/C [9]: 77.3%
- viability, T/C [29]: 70.2%
- viability, T/C [10]: 70%
- viability, T/C [30]: 62.9%
- viability, T/C [31]: 45.3%
- viability, T/C [32]: 19.1%
- viability, T/C [11]: 61.5%
- viability, T/C [33]: 62.7%
- viability, T/C [12]: 54.6%
- viability, T/C [34]: 55.8%
- viability, T/C [35]: 36.6%
- viability, T/C [36]: 1.29%

SMILES: CC1COCCN1c1cc(C2(S(C)(=N)=O)CC2)nc(-c2ccnc3[nH]ccc23)n1 (stereo not drawn) + Cc1[nH]c2ccc(F)cc2c1-c1nc2c3cccnc3c3ncccc3c2[nH]1
- pIC50 (second compound 0.0316 µM): < 5.00
- pIC50 (second compound 0.1 µM): < 5.00
- pIC50 (second compound 0.316 µM): < 5.00
- pIC50 (second compound 1 µM): < 5.00
- pIC50 (second compound 3.16 µM): 6.86
- pIC50 (second compound 10 µM): < 5.00
- viability, T/C [1]: 105%
- viability, T/C [13]: 113%
- viability, T/C [2]: 103%
- viability, T/C [14]: 90.3%
- viability, T/C [15]: 95.7%
- viability, T/C [16]: 76.2%
- viability, T/C [3]: 110%
- viability, T/C [17]: 103%
- viability, T/C [4]: 95.7%
- viability, T/C [18]: 103%
- viability, T/C [19]: 77.2%
- viability, T/C [20]: 68.1%
- viability, T/C [5]: 90.3%
- viability, T/C [21]: 99.9%
- viability, T/C [6]: 93.6%
- viability, T/C [22]: 93.6%
- viability, T/C [23]: 92.4%
- viability, T/C [24]: 67.6%
- viability, T/C [7]: 81.8%
- viability, T/C [25]: 72.5%
- viability, T/C [8]: 78.8%
- viability, T/C [26]: 68.7%
- viability, T/C [27]: 66.6%
- viability, T/C [28]: 64.1%
- viability, T/C [9]: 62.5%
- viability, T/C [29]: 43.8%
- viability, T/C [10]: 56%
- viability, T/C [30]: 36.3%
- viability, T/C [31]: 48.3%
- viability, T/C [32]: 36%
- viability, T/C [11]: 68.1%
- viability, T/C [33]: 77.2%
- viability, T/C [12]: 67.5%
- viability, T/C [34]: 74.3%
- viability, T/C [35]: 61.1%
- viability, T/C [36]: 54.7%
